According to PubChem BioAssay AID256 (DTP/NCI, 2004):
Inconclusive results and toxic doses are left out. How the source made its calls: active means survival T/C of 150% or more; inactive means T/C below 125% in these data.

Tested on: CD2F1 mice, L1210 leukemia ip, survival T/C
Experiment: NCI In Vivo Anticancer Drug Screen. Data for tumor model L1210 Leukemia (intraperitoneal) in CD2F1 (CDF1) mice
Conditions: endpoint: mean survival time, higher = longer survival
In short: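 Vehicle-treated tumor-bearing mice served as controls (C) for compound-treated mice (T). Reported figure is T divided by C.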

[1] = dose: 100.0 mg/kg/injection, schedule: Q04DX003 (ip), vehicle: saline
[2] = dose: 200.0 mg/kg/injection, schedule: Q04DX003 (ip), vehicle: saline
[3] = dose: 100.0 mg/kg/injection, schedule: Q04DX003 (ip), vehicle: saline with Tween-80
[4] = dose: 50.0 mg/kg/injection, schedule: Q04DX003 (ip), vehicle: saline
[5] = dose: 200.0 mg/kg/injection, schedule: Q04DX003 (ip), vehicle: saline with Tween-80

Measured: T/C

CC(C)CC([N+](C)(C)C)P(=O)([O-])O (centres undefined)
inactive: [1] 101 % of control | [2] 95 % of control | dose: 400.0 mg/kg/injection, schedule: Q04DX003 (ip), vehicle: saline 98 % of control

NC(=O)c1c2ccccc2nn1C1OC(CO)C(O)C1O (centres undefined)
inactive: dose: 100.0 mg/kg/injection, schedule: Q01DX005 (ip), vehicle: saline 96 % of control | dose: 200.0 mg/kg/injection, schedule: Q01DX005 (ip), vehicle: saline 102 % of control

CCOC(=O)c1cnc2c(cnn2CC)c1N1CCN(CCO)CC1
inactive: dose: 100.0 mg/kg/injection, schedule: Q04DX003 (ip), vehicle: Klucel (hydroxypropylcellulose) (HPC) 101 % of control

CC(C)(C)c1cc(O)c(O)c(C(C)(C)C)c1
inactive: dose: 100.0 mg/kg/injection, schedule: Q04DX003 (ip), vehicle: other 101 % of control | dose: 200.0 mg/kg/injection, schedule: Q04DX003 (ip), vehicle: other 95 % of control

CC(C)Cc1ccc(OC(=O)Nc2ccc(Cl)cc2)cc1
inactive: dose: 25.0 mg/kg/injection, schedule: Q01DX009 (ip), vehicle: saline with Tween-80 106 % of control | dose: 50.0 mg/kg/injection, schedule: Q01DX009 (ip), vehicle: saline with Tween-80 94 % of control | dose: 100.0 mg/kg/injection, schedule: Q01DX009 (ip), vehicle: saline with Tween-80 95 % of control | [3] 86 % of control

Cc1cc(O)c2c(c1O)C(=O)c1cccc(O)c1C2=O
inactive: dose: 0.75 mg/kg/injection, schedule: Q01DX009 (ip), vehicle: Klucel (hydroxypropylcellulose) (HPC) 103 % of control | dose: 1.5 mg/kg/injection, schedule: Q01DX009 (ip), vehicle: Klucel (hydroxypropylcellulose) (HPC) 98 % of control | dose: 3.0 mg/kg/injection, schedule: Q01DX009 (ip), vehicle: Klucel (hydroxypropylcellulose) (HPC) 101 % of control | dose: 6.0 mg/kg/injection, schedule: Q01DX009 (ip), vehicle: Klucel (hydroxypropylcellulose) (HPC) 113 % of control

Clc1ccc(-c2nnn3ccccc23)cc1
inactive: dose: 12.5 mg/kg/injection, schedule: Q01DX001 (ip), vehicle: saline with Tween-80 107 % of control | dose: 25.0 mg/kg/injection, schedule: Q01DX001 (ip), vehicle: saline with Tween-80 86 % of control | dose: 100.0 mg/kg/injection, schedule: Q01DX001 (ip), vehicle: saline 97 % of control | dose: 200.0 mg/kg/injection, schedule: Q01DX001 (ip), vehicle: saline 89 % of control

COC(OC)C1C=CC=CC=C1
inactive: dose: 100.0 mg/kg/injection, schedule: Q04DX003 (ip), vehicle: saline sonified 92 % of control | dose: 200.0 mg/kg/injection, schedule: Q04DX003 (ip), vehicle: saline sonified 94 % of control | dose: 400.0 mg/kg/injection, schedule: Q04DX003 (ip), vehicle: saline sonified 90 % of control

O=C(O)C1C2C/C(=N\O)C(C2)C1C(=O)O (centres undefined)
inactive: [4] 94 % of control | [1] 101 % of control | [2] 103 % of control

C[Si](c1ccccc1)c1ccccc1
inactive: dose: 100.0 mg/kg/injection, schedule: Q01DX001 (ip), vehicle: other 97 % of control | dose: 200.0 mg/kg/injection, schedule: Q01DX001 (ip), vehicle: other 100 % of control | dose: 400.0 mg/kg/injection, schedule: Q01DX001 (ip), vehicle: other 100 % of control

Cc1ccc(S(=O)(=O)Nc2ccccc2)c(CC(O)(c2ccccc2)c2ccccc2)c1
inactive: [3] 88 % of control | [5] 88 % of control

CCCCCCCCC(C(=O)c1ccccc1)C(O)(C(F)(F)F)C(F)(F)F (centres undefined)
inactive: [3] 102 % of control | [5] 111 % of control | dose: 400.0 mg/kg/injection, schedule: Q04DX003 (ip), vehicle: saline with Tween-80 102 % of control

Cc1cc(C)[nH]c(=S)n1.[Pd]
inactive: dose: 3.12 mg/kg/injection, schedule: Q04DX003 (ip), vehicle: saline 97 % of control | dose: 6.25 mg/kg/injection, schedule: Q04DX003 (ip), vehicle: saline 102 % of control | dose: 12.5 mg/kg/injection, schedule: Q04DX003 (ip), vehicle: saline 100 % of control | dose: 25.0 mg/kg/injection, schedule: Q04DX003 (ip), vehicle: saline 103 % of control | [4] 102 % of control | [1] 105 % of control | [2] 102 % of control

O=C(CCN1C(=O)c2ccccc2C1=O)c1ccccc1
inactive: dose: 100.0 mg/kg/injection, schedule: Q04DX002 (ip), vehicle: saline with Tween-80 95 % of control | dose: 200.0 mg/kg/injection, schedule: Q04DX002 (ip), vehicle: saline with Tween-80 89 % of control | dose: 400.0 mg/kg/injection, schedule: Q04DX002 (ip), vehicle: saline with Tween-80 92 % of control
